Where a name gives a salt, the structure may show the parent alone.
Assay: Octanol/water partition coefficient (O/W coefficient) of the second component
Conditions: for logP: 1-octanol/water (1/1 by mass); for Second component Octanol/water partition coefficient: 1-octanol/water 1/1 by mass, value of the second component species
Description: In this context, the octanol/water partition coefficient is a value calculated through the following.
A sample is dissolved in a mixture of octanol and water in a ratio by mass of 1/1, and the concentration of the substance in the octanol (Co) and the concentration of the substance in the water (Cw) are measured; then the octanol/water partition coefficient (O/W coefficient) is calculated according to equation (1) below.
O/W coefficient=Log(Co/Cw) (1)
The concentration of the substance in the octanol (Co) and the concentration of the substance in the water (Cw) are measured as follows.
The OECD test guideline is followed. More specifically, a sample is dissolved in a mixture of 1-octanol and water in a ratio by mass of 1/1, and the resulting solution is centrifuged until it completely separates into two layers. From the 1-octanol layer, an appropriate amount of octanol solution is pipetted. The tip of a syringe, into which air has been drawn in advance, is inserted into the water layer through the 1-octanol layer while the air is ejected, and the aqueous solution is sampled quickly.
For each solution, the test concentration is determined using an ion chromatograph (Metrohm, 930 Compact IC).

SMILES | logP | Second component Octanol/water partition coefficient
CCCCCCCCCCCCCCCCCC(=O)N(CCO)CCO [Add21, stearic acid diethanolamide] |  | 11
CCCCCCCC/C=C\CCCCCCCC(=O)N(CCO)CCO [Add1, oleic acid diethanolamide] |  | 6
CCCCCCC(CCCC)(CCCC)Cc1ccc(O)cc1 [Add33, 4-2,2-dibutyl-octylphenol] |  | 21
CCCCCCCCCCCCc1ccc(O)cc1 [Add32, 4-dodecylphenol] | 5 | 
CCCCCCCCCCCC(=O)NCC(C)O (stereo not shown) [Add22, lauric acid monoisopropanolamide] |  | 4

Second part, led by results:

logP | SMILES | Second component Octanol/water partition coefficient
0.9 | CCOC(=O)CC(O)(CC(=O)OCC)C(=O)OCC [Add10, triethyl citrate, reference compound] | 
4 | CC(C)COC(=O)CCCCC(=O)OCC(C)C [Add11, diisobutyl adipate, reference compound] | 

— patent publication US20230250262A1, “CELLULOSIC PARTICLE” (FUJIFILM Business Innovation Corp., priority 2022, published 2023)
